Results reported in patent EP2014287A1, “Use of cinnamic acid derivatives as modulators of an EP2 receptor” (Bayer Schering Pharma Aktiengesellschaft, priority 2007, dated 2009).

Legend:
Kumulus-Eizell Komplexe = test: cumulus expansion test in vitro; assay type: cell-based, Mäusen; conditions: in competition with PGE2
Source text: In immaturen weiblichen Mäusen (Stamm : CD1 (ICR) von Charles River) wird in einem Alter von 14-18 Tagen die Follikulogenese durch eine einmalige Gabe (intraperitoneal) von 10 I.E. PMSG (Pregnant Mare Serum Gonadotropine; Sigma G-4877, Lot 68H0909) induziert. 47 - 50 Stunden nach der Injektion werden die Ovarien entnommen und die Kumulus-Eizell Komplexe entnommen. Der Kumulus Komplex ist in diesem Stadium noch nicht expandiert. Die Kumulus-Eizell Komplexe werden nun für 20 - 24 Stunden mit Prostaglandin E2 (PGE2) (0,3 µM), Vehikel Kontrolle (Ethanol) oder Testsubstanzen inkubiert. Medium: alpha- MEM Medium mit 0,1 mM IBMX, Pyruvate (0,23 mM) Glutamine (2 mM), Pen/Strep 100 IU/ml Pen. und 100 µg/ml Strep.) und HSA (8 mg/ml)). Danach wird die Kumulus Expansion durch die Einteilung in vier Stadien (nach Vanderhyden et al. Dev Biol. 1990 Aug;140(2):307-317) festgestellt. Tabelle 1: Beispiel für die biologische Wirksamkeit der erfindungsgemäßen Verbindungen (gemessen mittels cAMP Antagonismustest): […]

[1] = biological target: T1, humanen Prostaglandin E2 (Subtyp EP2) Rezeptor (Homo sapiens, UniProt P43116); test: cAMP antagonism test (HTRF cAMP detection, in presence of PGE2); assay type: cell-based; conditions: cAMP Antagonismustest, read-out: Antagonismus [IC50
T1 construct: host or cells: cells in a culture plate
T1 sequence (P43116 whole entry): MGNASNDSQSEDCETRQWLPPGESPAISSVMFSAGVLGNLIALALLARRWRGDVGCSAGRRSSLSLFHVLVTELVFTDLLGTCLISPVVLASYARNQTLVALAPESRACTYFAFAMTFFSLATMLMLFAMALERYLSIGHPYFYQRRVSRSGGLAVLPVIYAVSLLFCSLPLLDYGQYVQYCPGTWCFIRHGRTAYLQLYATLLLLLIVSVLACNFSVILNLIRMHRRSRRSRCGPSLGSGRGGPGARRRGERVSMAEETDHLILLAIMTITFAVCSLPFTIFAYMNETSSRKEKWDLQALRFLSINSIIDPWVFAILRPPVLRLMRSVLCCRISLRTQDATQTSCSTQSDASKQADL
Source text: Die Bindung von PGE2 an den EP2-Subtyp des humanen PGE2-Rezeptors induziert die Aktivierung membranständiger Adenylatzyklasen und führt zur Bildung von cAMP. In Gegenwart des Phosphodiesteraseinhibitors IBMX wird das durch diese Stimulation akkumulierte und mittels Zell-Lyse freigesetzte cAMP in einem kompetitiven Nachweisverfahren eingesetzt. In diesem Test konkurriert das cAMP im Lysat mit cAMP-XL665 um die Bindung eines Eu-Kryptat markierten Anti-cAMP Antikörpers. Dabei entsteht in Abwesenheit von zellulärem cAMP ein maximales Signal, welches auf der Kopplung dieses Antikörpers an das cAMP-XL665 Molekül beruht. Dadurch entsteht nach Anregung bei 337 nm ein auf FRET (fluorescence resonance energy transfer) basierendes, lang anhaltendes Emissionssignal bei 665 nm (und bei […]). Beide Signale werden in einem geeigneten Messgerät zeitlich versetzt, d.h. nach Abklingen der Hintergrundsfluoreszenz gemessen. Jegliche Erhöhung des durch Prostglandin-E2-Gabe bedingten niedrigen FRET-Signals (gemessen als Well-Ratio-Veränderung = Emission665nm/Emission620nm * 10000) zeigt die Wirkung von Antagonisten.
Die in einer Testplatte und 30 % DMSO vorgelegten Substanzlösungen (0.75 µl) werden in 16 µl einer KRSB+IBMX-Stimulationslösung gelöst (1 X Krebs-Ringer Bicarbonate Buffer; Sigma-Aldrich # K-4002; inklusive 750 µM 3-Isobutyl-1-methylxanthine Sigma-Aldrich # I-7018), anschließend werden 15 µl davon in eine medienfreie Zellkulturplatte überführt, die kurz zuvor mit KRSB gewaschen worden war. Nach einer 30-minütigen Vorinkubation bei Raumtemperatur (RT) werden 5 µl einer 4xPGE2 Lösung (11 nM) zugegeben und in Gegenwart des Agonisten für weitere 60 min bei RT inkubiert (Volumen: - 20 µl), bevor die Reaktion anschließend durch Zugabe von 5 µl Lysispuffer gestoppt und für weitere 20 min bei RT inkubiert wird (Volumen: - 25 µl). Das Zell-Lysat wird anschließend in eine Messplatte überführt und entsprechend den Herstellerangaben (cyclic AMP kit Cisbio International # 62AMPPEC) gemessen.

[2] = biological target: T1, humanen Prostaglandin E2 (Subtyp EP2) Rezeptor; test: cellular agonism test (HTRF cAMP detection, without PGE2); assay type: cell-based

Compound | Unterdrückung der Kumulus Expansion (Kumulus-Eizell Komplexe; 100 - 200 µM) | IC50 [1] | Wirkung im zellulären Agonismustest [2] | Unterdrückung der Kumulus Expansion (Kumulus-Eizell Komplexe; 10 µM)
CC(C)Oc1ccc2c(=O)c3cc(C(=O)O)ccc3oc2c1 [AH 6809, reference compound] | ca. 30% |  |  | 
CCOc1cccc(CCC(=O)NCCc2c(C)[nH]c3c(F)ccc(C)c23)c1 [Beispiel 7, 3-(3-Ethoxyphenyl)-N-[2-(7-fluoro-2,4-dimethyl-1 H-indol-3-yl)-ethyl]-propionamid] |  | 1200 nM |  | 
Cc1[nH]c2c(F)ccc(C)c2c1CCNC(=O)CCc1ccc(F)cc1 [Beispiel 9, N-[2-(7-Fluoro-2,4-dimethyl-1 H-indol-3-yl)-ethyl]-3-(4-fluorophenyl)-propionamid] |  | 1500 nM | keine Inhibition | 20%
Cc1[nH]c2c(F)ccc(C)c2c1CCNC(=O)/C=C/c1cc(F)cc(F)c1 [Beispiel 20, (E)-3-(3,5-Difluorphenyl)-N-[2-(7-fluor-2,4-dimethyl-1 H-indol-3-yl)-ethyl]-acrylamid] |  | 830 nM |  | 
